Experimental data published in patent publication US7172871B1, “Methods and compositions for modulating axonal outgrowth of central nervous system neurons” (Children's Medical Center Corporation, priority 2000, dated 2007).

System: N-kinase
Test: in-gel kinase method (histone HF-1 substrate, [32P]-ATP)
Type: biochemical
Details: in-gel kinase assay, [32P]-ATP plus Mn2+, with or without 6-TG present; bovine brain fractions
Procedure: During the purification process, kinase activity was monitored using an in-gel kinase method. In this method, a histone HF-1 substrate protein is polymerized into a 10% polyacrylamide gel before the samples to be analyzed are electrophoresed in the gel. Following completion of the electrophoresis, proteins are partially renatured with guanidium isothiocyanate and incubated in the presence [^32P]-ATP plus Mn^2+, with or without 6-TG present. (Activation by Mn^2+, but not by Mg^2+ or Ca^2+, is a distinctive property of N-kinase). The purification of the kinase was monitored by looking for a 6-TG-inhibitable radioactive band corresponding to the site where the kinase phosphorylates the HF-1 substrate in the gel.

## Nc1nc2nc[nH]c2c(=S)[nH]1 [6-TG, 6-thioguanine]
  inhibition of N-kinase HF-1-phosphorylating activity: inhibitable
